According to US20080187512A1, “Treatment for spinal muscular atrophy” (Academia Sinica, priority 2007, published 2008):

What was measured:
Assay type in all cases: cell-based, mouse
[1] = tested on: SMN2; test: SMN2 splicing pattern, semi-quantitative RT-PCR in SMN2-NSC34 cells; design: key to SMN2 splicing pattern SMN2-NSC34: −: no effect; +: effective; +++: most effective
Experimental: Cell culture and chemical/dsRNA treatment. Mouse embryonic fibroblasts (MEFs) were prepared using the standard protocol. Briefly, E13.5 day embryo was isolated; the uterine deciduas were cut away, and the yolk sac was removed. The embryo was then scraped out to remove non-fibroblastic tissue, and the head severed for genotyping. Embryo body was minced in 0.25% Trypsin-EDTA and incubated for 30 min. It was then added to MEF culture media, and the cell suspension spun for ˜5 min at 1,000 rpm in the tissue culture centrifuge to pellet cells. The supernatant was aspirated off and the cell pellet immediately resuspended in 10 mL of fresh MEF culture media. The MEFs were allowed to reach confluency so the cells could be passaged for further experiments. Cultured MEFs and SMN2-NSC34 cells were maintained in Dulbecco's modified Eagle medium (Invitrogen, Carlsbad, Calif.) containing 10% heat-inactivated fetal bovine serum (Hyclone, Logan, Utah) and 1% penicillin-streptomycin (Invitrogen, Carlsbad, Calif.) and were incubated at 37° C. in a 5% CO2 humidified atmosphere. The cells were plated the day preceding treatment with each chemical and harvested at the indicated time.
Semi-quantitative PCR/RT-PCR. The genomic DNA from E13.5 SMA embryos was extracted. A specific primer pair, SMN forward 5′-[…]-3′ (SEQ ID NO:21) and SMN backward 5′-[…]-3′ (SEQ ID NO:22), was designed for recognition of both murine Smn and human SMN2. The PCR program initially started with a 95° C. denaturation for 10 min, followed by 19 to 26 cycles of 95° C./1 min. 53° C./1.5 min, 72° C./2 min to assay the linear range for both Smn and SMN2. For RT-PCR assay, total RNA was extracted at indicated time points from SMN2-NSC34 cells with sodium vanadate, TSA, and aclarubicin treatment or with an increasing amount of Stat5A1*6 transfection by using the TRizol reagent (Invitrogen, Carlsbad, Calif.). To amplify the exon7 inclusion/exclusion form of SMN2 transcripts, RT-PCR were performed using a primer set P5P6 as previously described (15). The transcript from the mouse glyceraldehyde-3-phosphate dehydrogenase (Gapdh) gene or the β-Actin gene was amplified using the primer pairs: Gapdh forward: 5′-[…]-3′ (SEQ ID NO:23), and backward: 5′-[…]-3′ (SEQ ID NO:24) (56° C.), and β-Actin forward: 5′-[…]-3′ (SEQ ID NO:25), and backward 5′-[…]-3′ (SEQ ID NO:26) (59° C.), and this allowed control of equal amounts of template. […] The gel images were digitally captured with a CCD camera and analyzed with the Alphalmager™. […] Relative total SMN2 transcript levels were determined from Stat5A1*6 transfected SMN2-NSC34 cells in a minimum of three independent experiments. Differences in ratios were determined to be significant by an independent two-tailed t-test, with *, P<0.05, **, P<0.005, ***, p<0.001.

[2] = tested on: ERK1/2 (pT202/pY204); test: Signaling pathway screen in SMN2-NSC34 cells
[3] = tested on: JNK (pT183/pY185); test: Signaling pathway screen in SMN2-NSC34 cells
[4] = tested on: Stat6 (pT641); test: Signaling pathway screen in SMN2-NSC34 cells

Sodium vanadate
SMN2 splicing pattern SMN2-NSC34 [1]: +++
efficiency in increasing full length SMN2 transcripts relative to the other compounds [1]: most efficient
treatment time after which the full length SMN2 expression level was enhanced [1]: 2 to 4 h
ERK1/2 (pT202/pY204) cellular response ([2]; 4 hrs): +
ERK1/2 (pT202/pY204) cellular response ([2]; 8 hrs): ++
JNK (pT183/pY185) cellular response ([3]; 4 hrs): +/−
JNK (pT183/pY185) cellular response ([3]; 8 hrs): +
Stat6 (pT641) cellular response ([4]; 4 hrs): −
Stat6 (pT641) cellular response ([4]; 8 hrs): −
